Values quoted from earlier work as cited in patent publication US20210319872A1, “DRUG AND DEVICE COMBINATION PRODUCTS WITH IMPROVED SAFETY AND EFFICACY PROFILES” (priority 2016, published 2021).
Read-outs that look alike come from different tables or passages of the source.

[1] = refractory oropharyngeal candidiasis

COc1ccccc1Oc1c(NS(=O)(=O)c2ccc(C(C)(C)C)cc2)nc(-c2ncccn2)nc1OCCO [Tracleer]
Decreased hemoglobin (in vivo): Hematologic: Decreased hemoglobin (6%)
Decreased hemoglobin (Severe) (in vivo): Hematologic: Decreased hemoglobin (Severe) (3%)
Headache (in vivo): Neurologic: Headache (up to 24%)
Hypotension (in vivo): 7%
Increased liver aminotransferase level (in vivo): ≤ 11%
Palpitations (in vivo): 5%
Serious side effect, Other (listed without frequency): Other: Angioedema

Fc1ccc([C@@H]2CCNC[C@H]2COc2ccc3c(c2)OCO3)cc1 [Paroxetine (Paxil)]
Abnormal ejaculation (in vivo): Reproductive: Abnormal ejaculation (13% to 28%), Erectile
Asthenia (in vivo): Neurologic: Asthenia (up to 22%), Dizziness (6% to 14%),
Constipation (in vivo): Gastrointestinal: Constipation (up to 16%), Diarrhea (up to 18%),
Diaphoresis (in vivo): Dermatologic: Diaphoresis (5% to 14%)
Diarrhea (in vivo): Gastrointestinal: Constipation (up to 16%), Diarrhea (up to 18%),
Dizziness (in vivo): Neurologic: Asthenia (up to 22%), Dizziness (6% to 14%),
Erectile dysfunction (in vivo): dysfunction (2% to 9%), Orgasm disorder (females; 2% to 9%),
Headache (in vivo): Headache (17% to 27%), Insomnia (up to 24%), Somnolence (up to
Nausea (in vivo): Loss of appetite (up to 9%), Nausea (up to 26%), Xerostomia (9%
Orgasm disorder (in vivo): dysfunction (2% to 9%), Orgasm disorder (females; 2% to 9%),
Palpitations (in vivo): Cardiovascular: Palpitations (up to 3%), Vasodilatation (2% to 4%)
Reduced libido (in vivo): Reduced libido (males: 6% to 15%; females: 0% to 9%)
Seizure (in vivo): Neurologic: Seizure (0.1%)
Somnolence (in vivo): ≤ 24%), Tremor (4% to 11%)
Tremor (in vivo): 24%), Tremor (4% to 11%)
Vasodilatation (in vivo): Cardiovascular: Palpitations (up to 3%), Vasodilatation (2% to 4%)
Xerostomia (in vivo): Loss of appetite (up to 9%), Nausea (up to 26%), Xerostomia (9%
Yawning (in vivo): Respiratory: Yawning (4%)

CC1(C)O[C@@H]2[C@@H](CO[C@@]3(COS(N)(=O)=O)OC(C)(C)O[C@@H]23)O1 [Trokendi XR]
Hyperammonemia (Adolescents): Endocrine metabolic: Hyperammonemia (Adolescents, 26%),
Serious side effect, Hepatic (listed without frequency): Hepatic: Liver failure
Serious side effect, Neurologic (listed without frequency): Neurologic: Drug-induced encephalopathy
Serious side effect, Psychiatric (listed without frequency): Psychiatric: Suicidal thoughts
Flushing (pediatrics): Dermatologic: Flushing (pediatrics, 5%)

CC(C)NCC(O)COc1ccc(CCOCC2CC2)cc1 (stereo not shown) [Betaxolol (Kerlone)]
Arthralgia (in vivo): Musculoskeletal: Arthralgia (3.1% to 5.2%), Chest pain (2.4% to
Bradyarrhythmia (in vivo): Cardiovascular: Bradyarrhythmia (5.8% to 8.1%)
Burning sensation in eye (in vivo): Ophthalmic: Burning sensation in eye (30%, ophthalmic)
Fatigue (in vivo): Other: Fatigue (2.9% to 9.7%)
Indigestion (in vivo): Gastrointestinal: Indigestion (3.9% to 4.7%), Nausea (1.6% to
Serious side effects, listed without incidence or only as rare (in vivo): Cardiovascular: Atrioventricular block, Myocardial infarction

CNCC[C@H](Oc1cccc2ccccc12)c1cccs1 [Duloxetine (Cymbalta)]
Constipation (in vivo): Gastrointestinal: Constipation (9% to 10%), Decrease in appetite
Diaphoresis (in vivo): Dermatologic: Diaphoresis (Adult, 6%; pediatric, less than 2%)
Diarrhea (in vivo): (6% to 10%), Diarrhea (Adult, 9%; pediatric, 6%), Nausea (18% to
Dizziness (in vivo): Neurologic: Asthenia, Dizziness (Adult, 9%; pediatric, 8%),
Headache (in vivo): Headache (Adult, 13% to 14%; pediatric, 18%), Hypersomnia,
Hypertension (in vivo): Cardiovascular: Hypertension (2%)
Insomnia (in vivo): Insomnia (7% to 10%), Sedated, Somnolence
Myocardial infarction (in vivo): Cardiovascular: Hypertensive crisis, Myocardial infarction (0.01%
Xerostomia (in vivo): 23%), Xerostomia (Adult, 11% to 14%; pediatric, 2%)

CCOC(=O)[C@H](CCc1ccccc1)N[C@@H](C)C(=O)N1[C@H](C(=O)O)C[C@H]2CCCC[C@@H]21 [Trandolapril (Mavik)]
Cardiogenic shock (in vivo): Cardiovascular: Cardiogenic shock (3.8%), Intermittent
Cough (in vivo): Respiratory: Cough (1.9% to 35%)
Dizziness (in vivo): Neurologic: Dizziness (1.3% to 23%)
Hyperkalemia (in vivo): Endocrine metabolic: Hyperkalemia (0.3% to 5.3%)
Hypotension (in vivo): Cardiovascular: Hypotension (0.6% to 11%), Syncope (5.9%)
Indigestion (in vivo): Gastrointestinal: Indigestion (0.3% to 6.4%)
Intermittent claudication (in vivo): claudication (3.8%)
Serum blood urea nitrogen raised (in vivo): Renal: Serum blood urea nitrogen raised (9%)
Syncope (in vivo): Cardiovascular: Hypotension (0.6% to 11%), Syncope (5.9%)

Contrave
Amnesia (in vivo): Neurologic: Amnesia (Less than 2%), Seizure (0.1%)
Anxiety (in vivo): Psychiatric: Anxiety (4.2%)
Cholecystitis (in vivo): Gastrointestinal: Cholecystitis (Less than 2%), Hematochezia (Less
Constipation (in vivo): Gastrointestinal: Constipation (19.2%), Diarrhea (7.1%), Nausea
Depression (in vivo): Psychiatric: Depression (6.3% to 7.1%), Mania, Psychiatric
Diarrhea (in vivo): Gastrointestinal: Constipation (19.2%), Diarrhea (7.1%), Nausea
Dizziness (in vivo): Neurologic: Dizziness (9.9%), Headache (17.6%), Insomnia (9.2%)
Erythema multiforme (in vivo): Dermatologic: Erythema multiforme (Rare), Stevens-Johnson
Headache (in vivo): Neurologic: Dizziness (9.9%), Headache (17.6%), Insomnia (9.2%)
Hypertension (in vivo): Cardiovascular: Hypertension (3.2%), Increased heart rate,
Infectious disorder of kidney (in vivo): Renal: Infectious disorder of kidney (Less than 2%), Serum
Insomnia (in vivo): Neurologic: Dizziness (9.9%), Headache (17.6%), Insomnia (9.2%)
Intervertebral disc prolapse (in vivo): Musculoskeletal: Intervertebral disc prolapse (Less than 2%)
Myocardial infarction (in vivo): Myocardial infarction (Less than 2%)
Nausea (in vivo): (32.5%), Vomiting (10.7%), Xerostomia (8.1%)
Pneumonia (in vivo): Respiratory: Pneumonia (Less than 2%)
Seizure (in vivo): Neurologic: Amnesia (Less than 2%), Seizure (0.1%)
Serious side effect, Cardiovascular (in vivo): Cardiovascular: Hypertension (3.2%), Increased heart rate,
Serious side effect, Endocrine metabolic (in vivo): Endocrine metabolic: Hypoglycemia
Serious side effect, Hepatic (in vivo): Hepatic: Hepatotoxicity
Serious side effect, Immunologic (in vivo): Immunologic: Anaphylaxis, Delayed hypersensitivity disorder
Serious side effect, Ophthalmic (in vivo): Ophthalmic: Angle-closure glaucoma
Serious side effect, Psychiatric (in vivo): Psychiatric: Depression (6.3% to 7.1%), Mania, Psychiatric
Serum creatinine raised (in vivo): creatinine raised (Less than 2%)
Stevens-Johnson syndrome (in vivo): syndrome (Rare)
Suicidal thoughts (in vivo): symptom, Suicidal thoughts (0.03%)
Vomiting (in vivo): (32.5%), Vomiting (10.7%), Xerostomia (8.1%)
Xerostomia (in vivo): (32.5%), Vomiting (10.7%), Xerostomia (8.1%)

Nc1nnc(-c2cccc(Cl)c2Cl)c(N)n1 [Lamotrigine (Lamictal)]
Abdominal pain (in vivo): Gastrointestinal: Abdominal pain (immediate-release, 5% to 10%),
Anemia (in vivo): Hematologic: Anemia (immediate release, less than 0.1%),
Angioedema (in vivo): Other: Angioedema (less than 0.1%), Neuroleptic malignant
Ataxia (in vivo): release, 6%), Ataxia (immediate-release, 2% to 11%), Coordination
Coordination problem (in vivo): problem (immediate-release, 6% to 7%; extended-release, 3%),
Depression (in vivo): 3%), Depression (immediate-release, 4%; extended-release, 3%)
Diarrhea (in vivo): Diarrhea (immediate-release, 6% to 11%; extended-release, 5%),
Dizziness (in vivo): Dizziness (immediate-release, 7% to 54%; extended release, 14%),
Dysmenorrhea (in vivo): Reproductive: Dysmenorrhea (immediate-release, 5% to 7%)
Headache (in vivo): Headache (immediate-release, 29%), Insomnia (immediate-release,
Indigestion (in vivo): Indigestion (immediate-release, 2% to 7%), Nausea (immediate-
Insomnia (in vivo): 5% to 10%), Somnolence (immediate-release, 9% to 17%;
Nausea (in vivo): release, 7% to 25%; extended-release, 7%), Vomiting (immediate-
Pain (in vivo): Other: Pain (immediate-release, 5%)
Rash (in vivo): Dermatologic: Rash (7% to 14%)
Rash, Serious (in vivo): Serious (0.08% to 0.8%), Stevens-Johnson syndrome (0.08% to
Rhinitis (in vivo): Respiratory: Rhinitis (immediate-release, 7% to 14%)
Vomiting (in vivo): release, 5% to 20%; extended-release, 6%))

Cn1c(CNc2ccc(C(=N)N)cc2)nc2cc(C(=O)N(CCC(=O)O)c3ccccn3)ccc21 [Dabigatran (Pradaxa)]
Bleeding (in vivo): prophylaxis, 10.5%; nonvalvular atrial fibrillation, 16.6%)
Bleeding, Major (in vivo): 0.3% to 1.4%; nonvalvular atrial fibrillation, 3.3%), Thrombosis
Gastroesophageal reflux disease (in vivo): disease (Atrial fibrillation, 5.5%), Gastrointestinal hemorrhage
Indigestion (in vivo): pulmonary embolism, 7.5%)
Myocardial infarction (in vivo): embolism, 0.32% to 0.66%; nonvalvular atrial fibrillation, 0.7%)

CC[C@@H]([C@H](C)O)n1ncn(-c2ccc(N3CCN(c4ccc(OC[C@@H]5CO[C@@](Cn6cncn6)(c6ccc(F)cc6F)C5)cc4)CC3)cc2)c1=O [Noxafil]
Cholestasis (frequency in words): Hepatic: Cholestasis (rare), Liver failure (rare)
Liver failure (frequency in words): Hepatic: Cholestasis (rare), Liver failure (rare)
Torsades de pointes (in vivo): pointes (less than 5%)
Diarrhea (oropharyngeal candidiasis): oropharyngeal candidiasis, 10%; refractory oropharyngeal
Fever (oropharyngeal candidiasis): 6%
Headache (oropharyngeal candidiasis): 8%
Nausea (oropharyngeal candidiasis): oropharyngeal candidiasis, 9%; refractory oropharyngeal
Vomiting (oropharyngeal candidiasis): oropharyngeal candidiasis, 7%; refractory oropharyngeal
Diarrhea [1]: 13%
Fever [1]: 34%
Headache [1]: 20%
Nausea [1]: 29%
Vomiting [1]: candidiasis, 28%)

CN(C)CCCC1(c2ccc(F)cc2)OCc2cc(C#N)ccc21 (stereo not shown) [Citalopram (Celexa)]
Agitation (in vivo): Psychiatric: Agitation (3% to 10%)
Cerebrovascular accident (in vivo): Neurologic: Cerebrovascular accident (0.1% to less than 1%)
Constipation (in vivo): Gastrointestinal: Constipation (13%), Diarrhea (8%), Nausea (20%
Diaphoresis (in vivo): Dermatologic: Diaphoresis (5% to 18%)
Diarrhea (in vivo): Gastrointestinal: Constipation (13%), Diarrhea (8%), Nausea (20%
Disorder of ejaculation (in vivo): Reproductive: Disorder of ejaculation (6.1%)
Dizziness (in vivo): Neurologic: Dizziness (14%), Headache (18%), Insomnia (15%),
Fatigue (in vivo): Other: Fatigue (5%)
Headache (in vivo): Neurologic: Dizziness (14%), Headache (18%), Insomnia (15%),
Insomnia (in vivo): Neurologic: Dizziness (14%), Headache (18%), Insomnia (15%),
Myocardial infarction (in vivo): Cardiovascular: Myocardial infarction (0.1% to 1%), Prolonged QT
Nausea (in vivo): Gastrointestinal: Constipation (13%), Diarrhea (8%), Nausea (20%
Prolonged QT interval (in vivo): interval (0.5% to 1.9%), Torsades de pointes
Sedated (in vivo): Sedated (15%), Somnolence (18%), Tremor (8% to 16%)
Somnolence (in vivo): Sedated (15%), Somnolence (18%), Tremor (8% to 16%)
Tremor (in vivo): Sedated (15%), Somnolence (18%), Tremor (8% to 16%)
Vomiting (in vivo): to 21%), Vomiting (4% to 20%), Xerostomia (17% to 20%)
Xerostomia (in vivo): to 21%), Vomiting (4% to 20%), Xerostomia (17% to 20%)
